Data as given in US9919000B2, “Altering cancer cellular functions through proton mopping” (priority 2013, dated 2018).

Legend:
[1] = test system: mouse 4T1 breast tumor; assay: In vivo syngeneic mouse 4T1 breast tumor study; design: species or system Balb/c mice
From the text: The Purpose: to assess the anti-tumor activity of the existing compound, C12H25NO8, PEGylated amine functionalized glycoside, 2-[2(2-Aminoethoxy)ethoxy]ethyl a-D-mannopyranoside, on a model of mouse 4T1 breast tumor in Balb/C mice.
Animal and Facility: healthy female Balb/c (5-6 weeks old), purchased from Harlan Laboratories, were allowed to acclimate for 3 days in a specific pathogen free animal facility. Animal housing, handling and procedures were followed according to the protocols and guidelines approved by the lab's Institutional Animal Care and Use Committee (IACUC).
In Vivo Syngeneic Tumor Study Design: Murine 4T1 breast tumor cells were kept in RPMI-1640 medium containing 10% FBS and 1% Pen/Strep. On the day of inoculation, the cells were harvested according to standard protocol (Beth Pulaski) and re-suspended in PBS at the cell concentration of 2.5×10^5 cells/ml. Each animal was injected with 0.1 ml of the cell solution into the right flank of Balb/c mice following the SOP. On the 8th day post-inoculation, all tumor volumes were measured and the animals were divided into two groups, control and treated.
Study Design: to deliver a predetermined dose of the compound intravenously for 5 days.
Study Objective: to observe clinically the reduction of the size of the tumors using calipers (our “biomarker”).[FIG. 2]
(§1) Treatment: the tested compound was prepared right before dosing on day 8 after 4T1 inoculation. Each mouse received a predetermined dose of either the compound or saline intravenously daily for 5 consecutive days. The mice tumor volumes and mice body weights were monitored every other day along with other general behavior factors.
(§2) Endpoints: animal was euthanized if one of the following conditions was identified: • its neoplasm reached the predetermined 1000 cubic mms • the animal became moribund • body weight lost more than 20% of its original weight

[2] = Tolerability in the 4T1 tumor study (body weight, general behavior); format: in vivo; conditions: intravenous daily dosing for 5 consecutive days, tumor-bearing Balb/c mice
Description: as §1, §2

NCCOCCOCCO[C@H]1OC(CO)[C@@H](O)[C@H](O)C1O (stereo partly drawn) [compound 5, 1-(2-(2-(2-Aminoethoxy)ethoxy)ethoxy-D-mannopyranoside]
maximal tumor growth inhibition index (TIC ratio) ([1]; by day 10, intravenously daily for 5 consecutive days from day 8 after 4T1 inoculation, tumor size by calipers): around 48%
4T1 tumor growth in the treated group ([1]; during treatment (day 8 to day 12), control tumors doubled every 2-3 days): grew slowly
tumor reduction ([1]; syngeneic mouse breast cancer model, FIG. 1): 48%
toxic effects / tolerability [2]: no toxic effects were observed
